Measured values as given in patent publication US6384304B1, “Conditional sterility in wheat” (Plant Genetic Systems N.V., priority 1999, dated 2002).

Tested on: Triticum aestivum plants
Details: 0.1% active ingredient, microdroplets on leaf blades, stage 32, outdoor; radioactivity measurements and autoradiography at different time points
Procedure: Plant treatment: The application solution of the formulated test compound was applied in the form of microdroplets by syringe to the blades (adaxial surface) of the fuilly developed leaves. A volume of 20 μl each was applied to the 3rd or 4th leaf of the main shoot and of two tillers per plant (=a total of 60 μl application solution per plant.). Plants were kept under outdoor conditions and uptake and translocation of the test substance was analyzed at different stages.
Sampling of Leaf Tissue was Carried Out at the Following Time Points:
1) 1 week after treatment
2) 3 weeks after treatment
Processing of Collected Samples for quantitative Determinations:
For the sampling done at time points 1, 2 and 3, the treated leaf blades were cut off and the non-absorbed test compound was washed from the treated leaf blades by 2 consecutive short washes with water. Subsequently plants were dissected further, resulting in the following parts: […]
Radioactivity was quantified in the different plant parts and in the washing solutions and was calculated as equivalents of the labeled compounds. […]
For the sampling time point 4, radioactivity is determined in the grains only and is calculated as equivalents of the labeled test compound. […]
In addition to the quantitative radioactivity measurements the distribution of radioactivity is determined by autoradiography in plants of the sampling time points 1 and 2.

Question: Which “foliar uptake in wheat tissue” value does the source give for `CC(=O)N[C@@H](CCP(C)(=O)[O-])C(=O)[O-].[Na+].[Na+]` [N-acetyl PPT, dinatrium L-2-acetamido-4-methylphosphinato-butyrate-[3^14C, 4^14C]] here?
Answer: Its value is “good”.

Question: What about the “translocation of the test substance in the plant” value of the same compound?
Answer: The value was “translocation through the phloem to the ears both in the main shoot and the tillers”.
